# How the values were obtained:
# [1] = system: CWR22R; assay: Antiproliferative activity against human 22Rv1 cells assessed as reduction in cell viability after 96 hrs by propidium iodide staining based fluorescence assay; type: functional
# [2] = system: HepG2; assay: Cytotoxicity against human HepG2 cells assessed as cell viability after 72 hrs by MTT assay; type: functional, cell-based; conditions: for AC50 / minimal effective concentration: HepG2, 72 h; for minimal effective concentration: read-out: MEC
# [3] = Antiproliferative activity against human DU145 cells assessed as reduction in cell viability after 96 hrs by propidium iodide staining based fluorescence assay; type: functional, DU-145
# [4] = Antiproliferative activity against human VCaP cells assessed as reduction in cell viability after 96 hrs by propidium iodide staining based fluorescence assay; type: functional
# [5] = system: LNCaP; assay: Antiproliferative activity against human LNCAP cells assessed as reduction in cell viability after 96 hrs by propidium iodide staining based fluorescence assay; type: functional
# [6] = molecular target: Albumin (Homo sapiens, UniProt P02768); assay: Binding affinity to human serum albumin at 5 uM by equilibrium dialysis based LC-MS/MS analysis; type: ADME; conditions: read-out: PB (converted)
# [7] = Half life in human liver microsomes at 3 uM in presence of NADPH by LC-MS/MS analysis; type: ADME
# [8] = molecular target: hERG (KCNH2) (Homo sapiens, UniProt Q12809); assay: Inhibition of human ERG transfected in CHO cells assessed as blockade of tail current at 25 uM by patch clamp assay; type: cell-based; conditions: CHO cells transfected with human ERG
# [9] = Homo sapiens, 22Rv1, 96 h, read-out: IC50
# [10] = Homo sapiens, DU-145, 96 h, read-out: IC50
# [11] = Homo sapiens, VCaP, 96 h, read-out: IC50
# [12] = Homo sapiens, LNCaP, 96 h, read-out: IC50
# Chain of hERG (KCNH2) (Q12809 whole entry): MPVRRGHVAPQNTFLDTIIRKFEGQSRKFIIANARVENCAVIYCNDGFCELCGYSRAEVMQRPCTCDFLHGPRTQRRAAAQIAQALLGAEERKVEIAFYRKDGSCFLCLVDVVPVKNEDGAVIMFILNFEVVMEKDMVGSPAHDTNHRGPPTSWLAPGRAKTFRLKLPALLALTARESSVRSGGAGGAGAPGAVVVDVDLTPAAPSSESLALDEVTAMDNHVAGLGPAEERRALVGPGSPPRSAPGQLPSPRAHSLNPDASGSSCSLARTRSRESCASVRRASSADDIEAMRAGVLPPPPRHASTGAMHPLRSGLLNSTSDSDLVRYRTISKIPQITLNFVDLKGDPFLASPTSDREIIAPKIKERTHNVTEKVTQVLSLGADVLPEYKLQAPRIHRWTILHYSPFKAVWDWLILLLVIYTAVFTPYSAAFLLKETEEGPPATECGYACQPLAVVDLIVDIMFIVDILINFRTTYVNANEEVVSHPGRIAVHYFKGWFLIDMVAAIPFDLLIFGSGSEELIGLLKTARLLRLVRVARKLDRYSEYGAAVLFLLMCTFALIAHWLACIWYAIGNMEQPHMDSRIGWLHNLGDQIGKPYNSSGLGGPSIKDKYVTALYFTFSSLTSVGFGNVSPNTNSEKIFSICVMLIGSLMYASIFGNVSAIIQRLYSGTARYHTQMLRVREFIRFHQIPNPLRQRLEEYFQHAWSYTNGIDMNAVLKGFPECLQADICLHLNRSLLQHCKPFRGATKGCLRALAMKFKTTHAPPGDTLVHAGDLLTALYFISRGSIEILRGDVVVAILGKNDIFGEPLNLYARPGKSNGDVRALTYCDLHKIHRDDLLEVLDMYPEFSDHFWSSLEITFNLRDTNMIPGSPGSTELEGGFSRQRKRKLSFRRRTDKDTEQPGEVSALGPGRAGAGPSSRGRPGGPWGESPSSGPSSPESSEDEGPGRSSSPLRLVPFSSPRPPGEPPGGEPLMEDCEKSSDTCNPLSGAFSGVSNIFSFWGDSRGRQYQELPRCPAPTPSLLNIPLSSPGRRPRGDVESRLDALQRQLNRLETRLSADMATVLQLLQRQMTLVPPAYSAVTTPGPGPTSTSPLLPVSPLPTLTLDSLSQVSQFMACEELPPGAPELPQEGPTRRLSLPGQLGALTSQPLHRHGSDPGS
# Chain of Albumin (P02768 whole entry): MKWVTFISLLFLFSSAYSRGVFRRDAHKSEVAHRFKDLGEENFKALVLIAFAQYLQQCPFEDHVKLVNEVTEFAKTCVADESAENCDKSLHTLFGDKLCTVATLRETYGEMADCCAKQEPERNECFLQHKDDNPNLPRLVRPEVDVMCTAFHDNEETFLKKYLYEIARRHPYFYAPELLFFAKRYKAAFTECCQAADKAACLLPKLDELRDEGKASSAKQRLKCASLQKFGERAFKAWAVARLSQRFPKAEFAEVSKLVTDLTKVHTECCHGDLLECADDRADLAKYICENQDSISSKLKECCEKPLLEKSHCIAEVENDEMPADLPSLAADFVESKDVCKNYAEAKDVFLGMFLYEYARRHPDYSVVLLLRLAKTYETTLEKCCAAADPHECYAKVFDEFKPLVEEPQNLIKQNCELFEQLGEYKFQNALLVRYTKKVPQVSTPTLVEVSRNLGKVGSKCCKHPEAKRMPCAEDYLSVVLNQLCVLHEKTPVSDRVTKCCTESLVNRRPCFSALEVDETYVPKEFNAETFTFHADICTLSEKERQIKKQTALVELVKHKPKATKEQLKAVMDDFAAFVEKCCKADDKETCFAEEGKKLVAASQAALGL
SMILES,"IC50 [1, 9] [µM]",Activity [2],"IC50 [3, 10] [µM]","IC50 [4, 11] [µM]","IC50 [5, 12] [µM]",AC50 [2] [µM],minimal effective concentration [2] [µM],IC50 ([1]; cwr22r),IC50 ([3]; du-145),IC50 ([4]; vcap),IC50 ([5]; lncap),fraction unbound at 5 µM [6],half-life at 3 µM [7] [h],inhibition at 25 µM [8] [%]
CC(O)(COc1cc(C(F)(F)F)cc(C(F)(F)F)c1)C(=O)Nc1ccc(C(F)(F)F)cc1 (stereo not given),8.49,Dose-dependent effect,9.23,4.15,3.35,–,–,–,–,–,–,–,–,–
CC(O)(CSc1cc(C(F)(F)F)cc(C(F)(F)F)c1)C(=O)Nc1ccc(C(F)(F)F)cc1 (stereo not given),9.75,Dose-dependent effect,16.4,9.88,9.61,–,–,–,–,–,–,–,–,–
CC(O)(CSc1cccc(OC(F)(F)F)c1)C(=O)Nc1cc(C(F)(F)F)cc(C(F)(F)F)c1 (stereo not given),6.42,Dose-dependent effect,9.61,9.29,7.76,–,–,–,–,–,–,–,–,–
CN(C)CCCN1c2ccccc2Sc2ccc(Cl)cc21 [CHLORPROMAZINE],–,–,–,–,–,7.62,2.07,–,–,–,–,–,–,–
CC(O)(CS(=O)(=O)c1cc(C(F)(F)F)cc(C(F)(F)F)c1)C(=O)Nc1ccc(C#N)c(C(F)(F)F)c1 (stereo not given),3.11,Dose-dependent effect,5.58,6.21,2.86,–,–,–,–,–,–,–,–,–
CC(O)(COc1cc(C(F)(F)F)cc(C(F)(F)F)c1)C(=O)Nc1ccc(C#N)cc1C(F)(F)F (stereo not given),4.07,Dose-dependent effect,8.05,4.77,3.56,–,–,–,–,–,–,–,–,–
CC(O)(CS(=O)(=O)c1cc(C(F)(F)F)cc(C(F)(F)F)c1)C(=O)Nc1ccc(C#N)cc1C(F)(F)F (stereo not given),–,Dose-dependent effect,–,–,–,–,–,ND(Insoluble),ND(Insoluble),ND(Insoluble),ND(Insoluble),–,–,–
CC(O)(CS(=O)(=O)c1cc(C(F)(F)F)cc(C(F)(F)F)c1)C(=O)Nc1ccc([N+](=O)[O-])cc1C(F)(F)F (stereo not given),2.41,Dose-dependent effect,3.05,7.11,3.09,–,–,–,–,–,–,–,–,–
CC1(C)C(=O)N(c2ccc([N+](=O)[O-])cc2C(F)(F)F)C(=S)N1c1cc(C(F)(F)F)cc(C(F)(F)F)c1,6.97,Dose-dependent effect,10,18.6,4.67,–,–,–,–,–,–,0.001,1.19,9.44
CNC(=O)c1ccc(N2C(=S)N(c3ccc(C#N)c(C(F)(F)F)c3)C(=O)C2(C)C)cc1F [ENZALUTAMIDE],–,Dose-dependent effect,32.3,53,11.5,–,–,–,–,–,–,–,–,–
CC(O)(COc1cc(C(F)(F)F)cc(C(F)(F)F)c1)C(=O)Nc1ccc([N+](=O)[O-])cc1C(F)(F)F (stereo not given),16.1,Dose-dependent effect,11.6,23.7,24,–,–,–,–,–,–,–,–,–
CC(O)(COc1cc(C(F)(F)F)cc(C(F)(F)F)c1)C(=O)Nc1ccc([N+](=O)[O-])c(C(F)(F)F)c1 (stereo not given),1.09,Dose-dependent effect,2.9,1.66,0.99,–,–,–,–,–,–,–,–,–
CC1(C)C(=O)N(c2ccc(C#N)c(C(F)(F)F)c2)C(=S)N1c1cc(C(F)(F)F)cc(C(F)(F)F)c1,–,Dose-dependent effect,–,–,–,–,–,ND(Insoluble),ND(Insoluble),ND(Insoluble),ND(Insoluble),–,–,–
CNC(=O)c1ccc(N2C(=S)N(c3cc(C(F)(F)F)cc(C(F)(F)F)c3)C(=O)C2(C)C)cc1,26.4,Dose-dependent effect,47.9,19.8,11.3,–,–,–,–,–,–,–,–,–
CC(O)(CS(=O)(=O)c1ccc(F)cc1)C(=O)Nc1ccc(C#N)c(C(F)(F)F)c1 (stereo not given),–,Dose-dependent effect,–,–,–,–,–,–,–,–,–,–,–,–
CC(O)(CSc1cc(C(F)(F)F)cc(C(F)(F)F)c1)C(=O)Nc1ccc(C#N)c(C(F)(F)F)c1 (stereo not given),1.9,Dose-dependent effect,2.85,2.73,2.34,–,–,–,–,–,–,–,–,–

SMILES,"IC50 [1, 9] [µM]",Activity [2],"IC50 [3, 10] [µM]","IC50 [4, 11] [µM]","IC50 [5, 12] [µM]",AC50 [2] [µM],minimal effective concentration [2] [µM],IC50 ([1]; cwr22r),IC50 ([3]; du-145),IC50 ([4]; vcap),IC50 ([5]; lncap),fraction unbound at 5 µM [6],half-life at 3 µM [7] [h],inhibition at 25 µM [8] [%]
CC(O)(CSc1cc(C(F)(F)F)cc(C(F)(F)F)c1)C(=O)Nc1ccc([N+](=O)[O-])cc1C(F)(F)F (stereo not given),2.29,Dose-dependent effect,3.38,3.52,3.11,–,–,–,–,–,–,–,–,–
CC1(C)C(=O)N(c2ccc([N+](=O)[O-])c(C(F)(F)F)c2)C(=S)N1c1cc(C(F)(F)F)cc(C(F)(F)F)c1,20.2,Dose-dependent effect,18.1,28.4,9.93,–,–,–,–,–,–,–,–,–
CC(O)(CS(=O)(=O)c1ccccc1OC(F)(F)F)C(=O)Nc1cc(C(F)(F)F)cc(C(F)(F)F)c1 (stereo not given),8.99,Dose-dependent effect,12.9,9.95,8.02,–,–,–,–,–,–,0.217,4.83,13.4
CC(O)(COc1cc(C(C)(C)C)cc(C(C)(C)C)c1)C(=O)Nc1ccc(C#N)c(C(F)(F)F)c1 (stereo not given),2.27,Dose-dependent effect,3.15,2.98,2.67,–,–,–,–,–,–,–,–,–
CC(O)(CS(=O)(=O)c1cccc(C(F)(F)F)c1)C(=O)Nc1cc(C(F)(F)F)cc(C(F)(F)F)c1 (stereo not given),10.3,Dose-dependent effect,11.5,9.98,9.5,–,–,–,–,–,–,–,–,–
C[C@](O)(CSc1cc(C(F)(F)F)cc(C(F)(F)F)c1)C(=O)Nc1ccc(C#N)c(C(F)(F)F)c1,1.13,–,2.66,0.84,0.79,2.35,1.22,–,–,–,–,–,0.108,–
CC(O)(CSc1ccccc1OC(F)(F)F)C(=O)Nc1cc(C(F)(F)F)cc(C(F)(F)F)c1 (stereo not given),2.94,Dose-dependent effect,6.41,2.9,2.91,–,–,–,–,–,–,–,–,–
CC(O)(CS(=O)(=O)c1ccccc1C(F)(F)F)C(=O)Nc1cc(C(F)(F)F)cc(C(F)(F)F)c1 (stereo not given),9.45,Dose-dependent effect,11,8.55,8.51,–,–,–,–,–,–,–,–,–
N#CC(C#N)=NNc1cccc(Cl)c1 [CARBONYL CYANIDE M-CHLOROPHENYLHYDRAZONE],–,–,–,–,–,8.28,3.25,–,–,–,–,–,–,–
CC(O)(CS(=O)(=O)c1cccc(OC(F)(F)F)c1)C(=O)Nc1cc(C(F)(F)F)cc(C(F)(F)F)c1 (stereo not given),12.8,Dose-dependent effect,14.1,9.99,9.34,–,–,–,–,–,–,–,–,–
CC(O)(CSc1ccccc1C(F)(F)F)C(=O)Nc1cc(C(F)(F)F)cc(C(F)(F)F)c1 (stereo not given),4.37,Dose-dependent effect,8.66,3.84,3.57,–,–,–,–,–,–,–,–,–
CC(O)(CSc1cccc(C(F)(F)F)c1)C(=O)Nc1cc(C(F)(F)F)cc(C(F)(F)F)c1 (stereo not given),9.67,Dose-dependent effect,10,9.86,8.75,–,–,–,–,–,–,–,–,–
CC(O)(CSc1cc(C(F)(F)F)cc(C(F)(F)F)c1)C(=O)Nc1ccc(C#N)cc1C(F)(F)F (stereo not given),4.65,Dose-dependent effect,9.09,6.65,7.76,–,–,–,–,–,–,–,–,–
CC1(C)C(=O)N(c2ccc(C#N)cc2C(F)(F)F)C(=S)N1c1cc(C(F)(F)F)cc(C(F)(F)F)c1,–,Dose-dependent effect,–,–,–,–,–,ND(Insoluble),ND(Insoluble),ND(Insoluble),ND(Insoluble),–,–,–
CC(O)(COc1cc(C(F)(F)F)cc(C(F)(F)F)c1)C(=O)Nc1ccc(C#N)c(C(F)(F)F)c1 (stereo not given),2.64,Dose-dependent effect,4.7,2.47,3.01,–,–,–,–,–,–,0.053,32.2,7.64

# Reference: ChEMBL document CHEMBL3826911, “Rational design and synthesis of novel anti-prostate cancer agents bearing a 3,5-bis-trifluoromethylphenyl moiety” (Bioorg Med Chem Lett, 2016)
